{
  "source": "patent US9642819B2",
  "about": "“Low dosage serotonin 5-HT2A receptor agonist to suppress inflammation” (BOARD OF SUPERVISORS OF LOUISIANA STATE UNIVERSITY AND …, priority 2008, dated 2017)",
  "key": {"[1]": {"tested_on": "ICAM-1, VCAM-1, and IL-6 gene expression", "assay": "TNF-α induced proinflammatory gene expression (ICAM-1, VCAM-1, IL-6) by Q-RT-PCR in RASM cells", "format": "cell-based, rat", "protocol": "RASM cells and treatment. Rat aortic smooth muscle (RASM) cells were isolated from adult 180 g male Sprague-Dawley rats and provided by the Cell and Molecular Core Facility in the Department of Pharmacology at LSUHSC-NO. Isolated RASM cells were grown in M-199 media containing 10% fetal bovine serum (Gibco), 100 units/mL penicillin, and 100 µg/mL streptomycin, and incubated at 37° C. in 5% CO2. Cells for all assays were used between passages 3 and 5. Prior to treatments, cells were grown in M-199 media with 10% fetal bovine serum (FBS) until 30-50% confluent. For most assays, cells were treated with (R)-DOI, or other drugs as indicated, at specific concentrations for 24 hours, followed by TNF-α (10 ng/ml) and (R)-DOI at the same pretreatment concentrations in fresh M-199 media. After another 24 hours, the cells were scraped, pelleted, and processed for RNA.\nRNA isolation and Quantitative Realtime-PCR. RNA was extracted from cells using Illustra RNAspin Mini kits from GE Healthcare Life Sciences (Piscataway, N.J.) following protocols supplied by the manufacturer. First strand cDNA was generated using the ImProm-II cDNA synthesis kit (Promega) following the manufacturers protocols. Q-RT-PCR was performed using the ProbeLibrary system from Roche (Indianapolis, Ind.) in combination with the HotStart-IT probe qpcr master mix from USB Biological (Cleveland, Ohio) following manufactures protocols.\nPrimers were synthesized by IDT (Coralville, Iowa). ProbeLibrary probes from Roche were: U3, U74, U13, U106, U79 for 5-HT2AR, ICAM-1, VCAM-1, IL-6, and cyclophillin B, respectively. Quantitative determination of gene expression levels using a 2-step cycling protocol was performed on a MyIQ-5 Cycler (Bio-Rad, Hercules Calif.). Relative gene expression levels were calculated using the 2^[−ΔΔC(T)] method. Levels of all targets from the test samples were normalized to rat cyclophillin B expression.\nTo examine the effects of 5-HT2A receptor activation on TNF-α mediated proinflammatory gene expression, RASM cells were pretreated with (R)-DOI, a selective 5-HT2 receptor agonist, as described above. Dose-response curves were determined for the effects on ICAM-1, VCAM-1, and IL-6 gene expression for twelve different concentrations of (R)-DOI ranging from 0.1 pM to 100 nM, with each experiment repeated in triplicate. In FIGS. 1A-1C, the Y-axis represents a percent of TNF-α for the dose of (R)-DOI indicated on the X-axis."}, "[2]": {"tested_on": "ICAM-1 gene expression", "assay": "LPS stimulated ICAM-1 gene expression in primary rat aortic smooth muscle cells", "format": "cell-based", "details": "60 minute pretreatment, 100 nM", "protocol": "All treatments with 5-HT2A receptor agonists occurred 1 hour prior to the addition of TNF-alpha (10 ng/ml) or LPS (100 ng or […]) depending on the experiment. All RNA isolations, cDNA synthesis, QPCR gene expression assays examining ICAM1, VCAM1, and IL6, and data analysis were performed as described above in Example 1, except the primers were different for the human cell experiment. The human gene PCR primer sequences and universal probe numbers were as follows: cyclophillin (control amplicon; Probe U64): forward primer, 5′-[…]-3′ (SEQ ID NO: 11), reverse primer, 5′-[…]-3′ (SEQ ID NO: 12); and human ICAM-1 (Probe U71, intracellular adhesion molecule 1): forward primer, 5′-[…]-3′ (SEQ ID NO: 13), reverse primer, 5′-[…]-3′ (SEQ ID NO: 14).\nThe effect of (R)-DOI (60 minute pretreatment) on the expression of ICAM-1 in primary rat aortic smooth muscle cells after stimulation with LPS was examined. […] At a higher dose of LPS (1 μg), there was no effect of (R)-DOI on the increase in ICAM-1."}, "[3]": {"target": "5-HT2A receptor", "details": "read-out: Affinity=Ki for the receptor; cited from earlier work"}},
  "note": "“Also recorded” adds a separate entry of the source. Where two headings read alike, the source gives them in different places.",
  "data": [
    {"smiles": "COc1cc(C[C@@H](C)N)c(OC)cc1I", "note": "[(R)-DOI, (R)-1-(2,5-dimethoxy-4-iodophenyl)-2-aminopropane]", "values": [
      {"measurement": "effect of pretreatment on TNF-α induced increase in proinflammatory gene expression", "setting": "[1]; 1 nM prior to TNF-α 10 ng/ml", "value": "completely blocked; also recorded: completely inhibits"},
      {"measurement": "IC50", "setting": "[1]; RASM cells, TNF-α 10 ng/ml, ICAM-1, VCAM-1, IL-6, read-out: IC50 for inhibition of TNF-α mediated proinflammatory markers", "value": "0.01 to 0.02", "unit": "nM"},
      {"measurement": "IC50", "setting": "[1]; Rattus norvegicus, RASM cells, TNF-α 10 ng/ml, ICAM-1, VCAM-1, IL-6, read-out: IC50 for inhibition of TNF-α mediated proinflammatory markers", "value": "~0.02", "unit": "nM"},
      {"measurement": "IC50", "setting": "[1]; Rattus norvegicus, read-out: IC50 in blocking TNF-α mediated inflammation", "value": "~0.02", "unit": "nM"},
      {"measurement": "potency of inhibiting inflammatory marker gene expression relative to any current drug on the market", "setting": "[1]; greater", "value": "at least 100 times"},
      {"measurement": "potency relative to the more effective current anti-inflammatory agents", "setting": "[1]; more potent", "value": "~300", "unit": "fold"},
      {"measurement": "effect of compound alone on baseline expression of ICAM-1, VCAM-1, IL-6", "setting": "[1]; without TNF-α, 1 nM", "value": "no effect"},
      {"measurement": "effect on ICAM-1 induction by low dose of LPS", "setting": "[2]; LPS 100 ng", "value": "able to block the response"},
      {"measurement": "effect on ICAM-1 increase by higher dose of LPS", "setting": "[2]; LPS 1 μg", "value": "no effect"},
      {"measurement": "Ki", "setting": "[3]", "value": 0.5, "unit": "nM"}
    ]}
  ]
}
